Tests used:
Type in all cases: in vitro ADME
[1] = test system: primary human hepatocytes; test: In vitro metabolite profiling in primary human hepatocytes with or without proadifen; conditions: for % Parent of drug-related material: incubations in primary human hepatocytes, 1 μM test compound; for Contribution of amide hydrolysis to metabolism (incl. secondary metabolites): abundance of deacetylated metabolites relative to all metabolites
Experimental: In vitro metabolite profiling to evaluate the involvement of non-CYP-enzyme-mediated metabolic pathways such as hydrolysis in addition to CYP-mediated pathways is based on the semiquantitative analysis of the formation of prototypic metabolites in incubations with liver microsomes (with and without beta-nicotinamide adenine dinucleotide phosphate, NADPH), primary human hepatocytes (with and without the pan-CYP inhibitor proadifen) and recombinant CYP enzymes.
An additional measure to identify CYP-independent metabolic pathways is the use of the pan-CYP inhibitor proadifen in incubations of the test compound with human hepatocytes. In presence of proadifen, the CYP-related pathways are inhibited and metabolites would primarily be generated via non-CYP pathways.
The involvement of non-CYP-enzymes in metabolic transformations of the test compound was further investigated using primary human hepatocytes in suspension in presence or absence of the pan-CYP inhibitor proadifen (50 μM final incubation concentration). After recovery from cryopreservation, human hepatocytes were incubated in Dulbecco's modified eagle medium supplemented with 3.5 μg glucagon/500 ml, 2.5 mg insulin/500 ml and 3.75 mg/500 ml hydrocortisone containing 5% (v/v) human serum.
Following a 30 min preincubation in a cell culture incubator (37° C., 10% CO2) with or without 50 μM proadifen, test compound solution was spiked into the hepatocyte suspension to obtain a final cell density of 1.0*10^6 to 4.0*10^6 cells/ml (depending on the metabolic turnover rate of the compound observed with primary human hepatocytes), a final test compound concentration of 1 μM, and a final DMSO concentration of 0.05% (v/v).
The cells were incubated for six hours (incubator, horizontal shaker) and samples were removed from the incubation after 0, 0.5, 1, 2, 4 or 6 hours, depending on the metabolic turnover rate. Samples were quenched with acetonitrile and pelleted by centrifugation. The supernatant was transferred to a 96-deepwell plate, evaporated under nitrogen, and resuspended prior to bioanalysis by liquid chromatography-high resolution mass spectrometry for identification of putative metabolites.
The contribution of hydrolysis was calculated based on the abundance of the respective deacetylated metabolite(s) of the compounds of the present invention relative to all metabolites observed in incubations with human hepatocytes.

human plasma proteins = test: Human plasma protein binding assay (equilibrium dialysis); conditions: 1 μM, 2 hours, 37° C.
Experimental: Equilibrium dialysis (ED) technique was used to determine the approximate in vitro fractional binding of test compounds to plasma proteins. Dianorm Teflon dialysis cells (micro 0.2) were used. Each dialysis cell consists of a donor and an acceptor chamber, separated by an ultrathin semipermeable membrane with a 5 kDa molecular weight cut-off. Stock solutions for each test compound were prepared in DMSO at 1 mM and serially diluted to obtain a final test concentration of 1 μM. The subsequent dialysis solutions were prepared in plasma (supplemented with NaEDTA as anticoagulant), and aliquots of 200 μL test compound dialysis solution in plasma were dispensed into the donor (plasma) chambers. Aliquots of 200 μL dialysis buffer (100 mM potassium phosphate, pH 7.4) were dispensed into the buffer (acceptor) chamber. Incubation was carried out for 2 hours under rotation at 37° C. for establishing equilibrium.
At the end of the dialysis period, aliquots obtained from donor and acceptor chambers, respectively, were transferred into reaction tubes, spiked with Internal Standard solution and processed for HPLC-MS/MS analysis. Analyte concentrations were quantified in aliquots of samples by HPLC-MS/MS against external calibration curves.
Percent bound was calculated using the formula: % bound=(plasma concentration−buffer concentration/plasma concentration)×100

human hepatocytes = test: Metabolic stability in human hepatocytes; conditions: human hepatocyte suspension, 1 μM; predicted hepatic clearance as percentage of hepatic blood flow
Experimental: The metabolic degradation of a test compound was assayed in a human hepatocyte suspension. After recovery from cryopreservation, human hepatocytes were diluted in Dulbecco's modified eagle medium (supplemented with 3.5 μg glucagon/500 mL, 2.5 mg insulin/500 mL, 3.75 mg hydrocortisone/500 mL, 5% human serum) to obtain a final cell density of 1.0×10^6 cells/mL or 4.0×10^6 cells/mL, depending on the metabolic turnover rate of the test compound.
Following a 30 minutes preincubation in a cell culture incubator (37° C., 10% CO2), test compound solution was spiked into the hepatocyte suspension, resulting in a final test compound concentration of 1 μM and a final DMSO concentration of 0.05% (v/v).
The cell suspension was incubated at 37° C. (cell culture incubator, horizontal shaker) and samples were removed from the incubation after 0, 0.5, 1, 2, 4 and 6 hours. Samples were quenched with acetonitrile (containing internal standard) and pelleted by centrifugation. The supernatant was transferred to a 96-deepwell plate, and prepared for analysis of decline of parent compound by HPLC-MS/MS.
The percentage of remaining test compound was calculated using the peak area ratio (test compound/internal standard) of each incubation time point relative to the time point 0 peak area ratio. The log-transformed data were plotted versus incubation time, and the absolute value of the slope obtained by linear regression analysis was used to estimate in vitro half-life (T1/2).
In vitro intrinsic clearance (CLint) was calculated from in vitro T1/2 and scaled to whole liver using a hepatocellularity of 120×10^6 cells/g liver, a human liver per body weight of 25.7 g liver/kg as well as in vitro incubation parameters, applying the following equation: CL_[…]_IN VIVO[mL/min/kg]=(CL_[…][μL/min/10^6 cells]×hepatocellularity[10^6 cells/g liver]×liver factor[g/kg body weight])/1000
Hepatic in vivo blood clearance (CL) was predicted according to the well-stirred liver model considering an average liver blood flow (QH) of 20.7 mL/min/kg: CL[mL/min/kg]=CL_[…]_IN VIVO[mL/min/kg]×hepatic blood flow[mL/min/kg]/(CL_[…]_IN VIVO[mL/min/kg]+hepatic blood flow[mL/min/kg])
Results were expressed as percentage of hepatic blood flow: QH[%]=CL[mL/min/kg]/hepatic blood flow[mL/min/kg])

Structure (SMILES)	% Inhibition by 50 μM proadifen ([1]; formation of secondary metabolite m443 (of m429), primary human hepatocytes)	% Parent of drug-related material [1] [%]	Contribution of amide hydrolysis to metabolism (incl. secondary metabolites) ([1]; primary human hepatocytes) [%]	Hu PPB (human plasma proteins) [% bound]	Human HepStab (human hepatocytes) [% QH]
CC(=O)N1C[C@H](NC(=O)c2nccnc2N2CC(Oc3cc(F)c(F)c(F)c3)C2)C(F)(F)C1 [Example 11b]	82^6 % untreated control	82	49	84.4	11.4
CC(=O)N1C[C@H](NC(=O)c2nccnc2N2CC(Oc3cc(F)cc(F)c3)C2)C(F)(F)C1 [Example 10a]	–	86	51	82.4	15.3
CC(=O)N1CC[C@@H](NC(=O)c2nsnc2N2CC(Oc3cc(F)cc(F)c3)C2)C1 [Example 15a]	–	92	6	90.2	6.4
